In patent US7232837B2, “Stereoisomers with high affinity for adrenergic receptors” (McNeil-PPC, Inc., priority 1999, dated 2007):

Columns and labels:
[1] = tested on: New Zealand white rabbits; test: Pupil diameter / mydriasis after topical application to the rabbit eye; assay type: in vivo; details: for Pupil Diameter: mean ± S.E.
Description: (§1) These diastereomers were administered topically as either 1% or 2% solutions in buffered saline. Pupillary diameter and IOP were measured in all animals over a six hour time period during the day to minimize diurnal variations in IOP and pupil diameter.
(§2) The experiments were performed on adult male New Zealand white rabbits weighing 3.0–6.0 kg. All rabbits were caged individually and maintained on a 12 hr/12 hr light/dark schedule with free access to food and water. All animal procedures were in conformity with the ARVO Resolution on the Use and Care of Animals in Research. All treated rabbits had served as controls by having received a saline treatment on a different day.
(§3) Only one eye received drug treatment. The contralateral eye served as a control. Saline (or PBS) and drug treated rabbits were treated and observed simultaneously. A single dose was given at time zero and IOP and pupil diameter measured at −1.0, −0.5, 0.5, 1, 3 and 5 hrs post-treatment.
Pupil diameter was measured visually at the point of the greatest horizontal diameter with a transparent millimeter ruler. All measurements were made under the identical ambient lighting conditions.
(§4) Mean and Standard Error values were used to construct time-response and dose-response curves for the treated and contralateral eye of research rabbits. The data were analyzed statistically by an analysis of variance and a Bonferoni's test for significance. P<0.05 was the accepted level of significance.

[2] = tested on: Swiss-Webster mice; test: Locomotor stimulant and depressant effects in mice; details: i.p.
Description: Male Swiss-Webster mice (HSD ND4, Harlan Sprague Dawley, Houston, Tex.) aged 2–3 months were used in these studies. Each dose group consisted of 8 mice. The mice were housed 2 to 4 per cage in 30.4×22.9×15.2 cm clear polycarbonate cages with food and water available ad libitum for at least one week prior to locomotor activity testing. The colony was maintained at 23±1° C., on a normal light-dark cycle beginning at 0700 hr. All testing took place during the light portion of the light-dark cycle.
Horizontal (forward movement) locomotor activity was measured using a standardized, optical activity monitoring system [Model KXYZCM (16), Omnitech Electronics, Columbus, Ohio]. Activity was monitored in forty 40.5×40.5×30.5 cm clear acrylic chambers that where housed in sets of two within larger sound-attenuating chambers. A panel of 16 infrared beams and corresponding photodetectors were spaced 2 cm apart along the sides and 2.4 cm above the floor of each activity chamber. A 7.5-W incandescent light above each chamber provided dim illumination via a rheostat set to 20% of full scale. Fans provided an 80-dB ambient noise level within the chamber.
Triprolidine HCl was obtained from Research Biochemicals International, (Natick, Mass.).
Locomotor stimulant effects. […] (+)-Amphetamine was used as a positive control. The total horizontal distance traversed (cm) was recorded at 10 minute intervals for a 2-hour session. Separate groups of 8 mice were assigned to each dose or saline group, and dose-effect testing continued for each compound until maximal stimulant or depressant effects could be estimated. A separate control group was tested along with each compound.
Using TableCurve 2D v2.03 (Jandel Scientific), the mean average total distance traversed (cm/10 min) for that period was fit to a 3-parameter logistic peak function of log10 dose (with the constant set to the mean of the saline group), and the maximum effect estimated from the resulting curve. The […] (dose producing ½ maximal stimulant activity) was estimated from a linear regression against log10 dose of the ascending portion of the dose-effect curve. The stimulant efficacy was the peak effect of the compound (cm/10 min) as estimated from the logistic peak function, minus the mean control distance traveled (cm/10 min), and was expressed for each stimulant compound as a ratio to the stimulant efficacy determined for (+)-amphetamine.
The mean average total distance traversed (cm/10 min) for that period were fit to a linear function of log10 dose of the descending portion of the dose-effect curve. […] Efficacy was the ratio of maximal depressant effect to maximum possible depression for each compound (mean average total distance of the control group minus the lowest mean total distance, expressed as a ratio to the control group total distance).
(§5) Statistical analysis. Time course data for each compound were considered in 2-way analyses of variance with dose as a between-group and time as a within-group factor. The dose-effect data were considered in 1-way analyses of variance, and planned individual comparisons were conduced between each dose and the saline control group. Interaction studies were considered in 2-way analyses of variance, with Pretreatment and Test dose as the factors.

[3] = tested on: New Zealand white rabbits; test: Intraocular pressure (IOP) after topical application to the rabbit eye; assay type: in vivo; details: for IOP: mean ± S.E.
Description: as §1, §2, §3
IOP measurements were recorded with an Alcon Applanation Pneumotonograph (Surgical Products Division, Alcon Laboratories, Inc., Ft. Worth, Tex.) in rabbits placed in Lucite restraining cages. Initial topical application of a two drop 0.5% proparacaine HCl (Ophthetic®, Allergan Pharmaceuticals, Inc.) was performed on each rabbit.
as §4

[4] = tested on: Swiss-Webster mice; test: H1 receptor antagonist (triprolidine) interaction study, locomotor activity in mice; details: mice pretreated with triprolidine 20 min before the test compound
Description: H1 receptor antagonist interaction studies. […] The mice were immediately placed in the activity testing chamber for a 2-h session. Doses of the test compound were selected from the ascending or descending time of the dose-effect curve determined from the compound-alone studies. Eight mice were tested for each triprolidine/test compound combination.
as §5

[5] = 1% topical, drug treated eye (T), 0.5 hr
[6] = 1% topical, drug treated eye (T), 1 hr
[7] = 1% topical, drug treated eye (T), 3 hr
[8] = 1% topical, drug treated eye (T), 5 hr
[9] = 1% topical, drug treated eye (T), −0.5 hr (pre-treatment)
[10] = 1% topical, drug treated eye (T), −1 hr (pre-treatment)
[11] = 1% topical, untreated contralateral eye (U), 0.5 hr
[12] = 1% topical, untreated contralateral eye (U), 1 hr
[13] = 1% topical, untreated contralateral eye (U), 3 hr
[14] = 1% topical, untreated contralateral eye (U), 5 hr
[15] = 1% topical, untreated contralateral eye (U), −0.5 hr (pre-treatment)
[16] = 1% topical, untreated contralateral eye (U), −1 hr (pre-treatment)
[17] = 2% topical, drug treated eye (T), 0.5 hr
[18] = 2% topical, drug treated eye (T), 1 hr
[19] = 2% topical, drug treated eye (T), 3 hr
[20] = 2% topical, drug treated eye (T), 5 hr
[21] = 2% topical, drug treated eye (T), −0.5 hr (pre-treatment)
[22] = 2% topical, drug treated eye (T), −1 hr (pre-treatment)
[23] = 2% topical, untreated contralateral eye (U), 0.5 hr
[24] = 2% topical, untreated contralateral eye (U), 1 hr
[25] = 2% topical, untreated contralateral eye (U), 3 hr
[26] = 2% topical, untreated contralateral eye (U), 5 hr
[27] = 2% topical, untreated contralateral eye (U), −0.5 hr (pre-treatment)
[28] = 2% topical, untreated contralateral eye (U), −1 hr (pre-treatment)
[29] = — denotes absence of significant effect

Q: What does the source list for `CNC[C@@H](O)c1cccc(O)c1` [(+)-Phenylephrine, (+)-phenylephrine]?
A: Pupil Diameter [1, 5]: 6 ± 0.2 mm; Pupil Diameter [1, 6]: 9 ± 0.2 mm; Pupil Diameter [1, 7]: 9 ± 0.2 mm; Pupil Diameter [1, 8]: 9 ± 0.2 mm; Pupil Diameter [1, 9]: 5 ± 0.2 mm; Pupil Diameter [1, 10]: 5 ± 0.2 mm; Pupil Diameter [1, 11]: 6 ± 0.2 mm; Pupil Diameter [1, 12]: 9 ± 0.2 mm; Pupil Diameter [1, 13]: 9 ± 0.2 mm; Pupil Diameter [1, 14]: 9 ± 0.2 mm; Pupil Diameter [1, 15]: 5 ± 0.2 mm; Pupil Diameter [1, 16]: 5 ± 0.2 mm; Pupil Diameter [1, 17]: 6 ± 0.2 mm; Pupil Diameter [1, 18]: 9 ± 0.2 mm; Pupil Diameter [1, 19]: 9 ± 0.2 mm; Pupil Diameter [1, 20]: 9 ± 0.2 mm; Pupil Diameter [1, 21]: 5 ± 0.2 mm; Pupil Diameter [1, 22]: 5 ± 0.2 mm; Pupil Diameter [1, 23]: 6 ± 0.2 mm; Pupil Diameter [1, 24]: 9 ± 0.2 mm; Pupil Diameter [1, 25]: 9 ± 0.2 mm; Pupil Diameter [1, 26]: 9 ± 0.2 mm; Pupil Diameter [1, 27]: 5 ± 0.2 mm; Pupil Diameter [1, 28]: 5 ± 0.2 mm; Depression Time: 30-min period following injection in which the maximal depression occurred [2]: 0 to 30 min; Stimulation Time: 30-min period following injection in which the maximal stimulant effect occurred [2]: 60 to 90 min; locomotor depressant effects, time course (result in words) [2]: dose-dependent locomotor depression within 10 to 20 minutes following injection; Depression Potency: dose resulting in ½ the maximal depressant effect (ID50) [2, 29]: 53.3 mg/kg; IOP [3, 5]: 16 ± 1.5 mmHg; IOP [3, 6]: 16 ± 0.7 mmHg; IOP [3, 7]: 15 ± 0.5 mmHg; IOP [3, 8]: 16 ± 1.0 mmHg; IOP [3, 9]: 18 ± 2.1 mmHg; IOP [3, 10]: 19 ± 1.8 mmHg; IOP [3, 11]: 19 ± 1.8 mmHg; IOP [3, 12]: 17 ± 1.1 mmHg; IOP [3, 13]: 16 ± 1.0 mmHg; IOP [3, 14]: 17 ± 1.7 mmHg; IOP [3, 15]: 19 ± 2.0 mmHg; IOP [3, 16]: 21 ± 2.0 mmHg; IOP [3, 17]: 20 ± 1.7 mmHg; IOP [3, 18]: 19 ± 1.8 mmHg; IOP [3, 19]: 19 ± 2.2 mmHg; IOP [3, 20]: 16 ± 2.4 mmHg; IOP [3, 21]: 19 ± 0.8 mmHg; IOP [3, 22]: 19 ± 0.9 mmHg; IOP [3, 23]: 21 ± 1.7 mmHg; IOP [3, 24]: 22 ± 2.2 mmHg; IOP [3, 25]: 20 ± 1.8 mmHg; IOP [3, 26]: 18 ± 1.9 mmHg; IOP [3, 27]: 19 ± 2.2 mmHg; IOP [3, 28]: 19 ± 1.6 mmHg; effect of triprolidine pretreatment on stimulant or depressant effects [4]: failed to show significant modification of stimulant or depressant effects

Q: What does the source list for (+)-norpseudoephedrine?
A: mydriasis / pupil diameter (result in words) ([1]; 1% or 2% topical, rabbit): significant mydriasis; Mydriatic Responses, TREATED EYE ([1]; 1% topical): ++ (++ = 2–4 mm change); Mydriatic Responses, UNTREATED EYE ([1]; 1% topical): + (+ = 0–2 mm change); Pupil Diameter [1, 5]: 8 ± 0.2 mm; Pupil Diameter [1, 6]: 8 ± 0.2 mm; Pupil Diameter [1, 7]: 8 ± 0.2 mm; Pupil Diameter [1, 8]: 8 ± 0.2 mm; Pupil Diameter [1, 9]: 6 ± 0.2 mm; Pupil Diameter [1, 10]: 6 ± 0.2 mm; Pupil Diameter [1, 11]: 8 ± 0.2 mm; Pupil Diameter [1, 12]: 8 ± 0.2 mm; Pupil Diameter [1, 13]: 8 ± 0.2 mm; Pupil Diameter [1, 14]: 8 ± 0.2 mm; Pupil Diameter [1, 15]: 6 ± 0.2 mm; Pupil Diameter [1, 16]: 6 ± 0.2 mm; Mydriatic Responses, TREATED EYE ([1]; 2% topical): ++ (++ = 2–4 mm change); Mydriatic Responses, UNTREATED EYE ([1]; 2% topical): ++ (++ = 2–4 mm change); Pupil Diameter [1, 17]: 9 ± 0.2 mm; Pupil Diameter [1, 18]: 9 ± 0.2 mm; Pupil Diameter [1, 19]: 9 ± 0.2 mm; Pupil Diameter [1, 20]: 9 ± 0.2 mm; Pupil Diameter [1, 21]: 6 ± 0.2 mm; Pupil Diameter [1, 22]: 6 ± 0.2 mm; Pupil Diameter [1, 23]: 9 ± 0.2 mm; Pupil Diameter [1, 24]: 9 ± 0.2 mm; Pupil Diameter [1, 25]: 9 ± 0.2 mm; Pupil Diameter [1, 26]: 9 ± 0.2 mm; Pupil Diameter [1, 27]: 6 ± 0.2 mm; Pupil Diameter [1, 28]: 6 ± 0.2 mm; Depression Time: 30-min period following injection in which the maximal depression occurred [2]: 10 to 40 min; Stimulation Time: 30-min period following injection in which the maximal stimulant effect occurred [2]: 30 to 60 min; Stimulation Potency: dose resulting in ½ the maximal stimulant effect (ID50) [2, 29]: 12.2 mg/kg; effect on IOP (result in words) ([3]; 1% or 2% topical, rabbit): accompanying increase in IOP; IOP [3, 5]: 19 ± 2.4 mmHg; IOP [3, 6]: 18 ± 1.8 mmHg; IOP [3, 7]: 18 ± 2.0 mmHg; IOP [3, 8]: 17 ± 2.8 mmHg; IOP [3, 10]: 18 ± 1.0 mmHg; IOP [3, 11]: 24 ± 1.8 mmHg; IOP [3, 12]: 19 ± 1.8 mmHg; IOP [3, 13]: 18 ± 2.8 mmHg; IOP [3, 14]: 17 ± 2.8 mmHg; IOP [3, 16]: 20 ± 1.7 mmHg; IOP [3, 17]: 18 ± 2.5 mmHg; IOP [3, 18]: 20 ± 2.3 mmHg; IOP [3, 19]: 20 ± 2.0 mmHg; IOP [3, 20]: 21 ± 2.8 mmHg; IOP [3, 21]: 16 ± 2.5 mmHg; IOP [3, 22]: 19 ± 2.4 mmHg; IOP [3, 23]: 22 ± 2.0 mmHg; IOP [3, 24]: 23 ± 2.1 mmHg; IOP [3, 25]: 22 ± 2.7 mmHg; IOP [3, 26]: 24 ± 2.3 mmHg; IOP [3, 27]: 19 ± 2.5 mmHg; IOP [3, 28]: 18 ± 2.6 mmHg; effect of triprolidine pretreatment on stimulant or depressant effects [4]: failed to show significant modification of stimulant or depressant effects
